What all share (assay): Minimal inhibitory concentration in 0.25x TSB, microtiter plates
What all share (assay type): cell-based

In experiment [1] the test system is Escherichia coli strain D31. The following applies: E. coli. As to the method:
(§1) Antimicrobial activity of TAP (SEQ ID NO: 1) and
(§2) Magainin 2-NH2 (SEQ ID NO: 6). Minimal inhibitory
(§3) concentrations were determined by incubating approximately
(§4) 3.125 μg/ml of the appropriate peptide.
*strain D31 (Steiner, H. D., Hultmark, A., supra, (1981)

For experiment [2], the system named is Candida albicans (ATCC 14053). As to the method:
as §1, §2, §3, §4

Experiment [3] deals with Pseudomonas aeruginosa (ATCC 27853). The following applies: 2.5 × 10^4 microbe in 0.25× TSB, overnight 37° C. As to the method:
as §1, §2, §3, §4

The subject of experiment [4] is Staphylococcus aureus (ATCC 25923). Particulars: 2.5 × 10^4 microbe in 0.25× TSB, overnight 37° C. As to the method: as §1, §2, §3, §4
Experiment [5] deals with Klebsiella pneumonia (ATCC 13883). As to the method: as §1, §2, §3, §4

One substance from patent US5432270A, “DNA encoding tracheal antimicrobial peptides” (priority 1993, dated 1995) can be followed below.

With “TAP: 38-residue cysteine-rich antimicrobial peptide purified from bovine tracheal mucosa, SEQ ID NO:1 (NPVSCVRNKGICVPIRCPGSMKQIGTCVGRAVKCCRKK)”, the “Antimicrobial activity in vitro (in words)” value in experiment [1] is on record as “most active”; in experiment [2] (C. albicans), “significant antimicrobial activity”; in experiment [5] (K. pneumonia), “most active”. Besides, the Minimal inhibitory concentration lay within 6.25 to 12.5 µg/mL in experiment [2] (Candida albicans ATCC 14053, 2.5 × 10^4 microbe in 0.25× TSB, overnight 37° C.); 25 to 50 µg/mL in experiment [3]; 25 to 50 µg/mL in experiment [4]; 12.5 to 25 µg/mL in experiment [5] (Klebsiella pneumonia ATCC 13883, 2.5 × 10^4 microbe in 0.25× TSB, overnight 37° C.).
